Source: patent US20260274892A1, “MACROCYCLIC BROAD SPECTRUM ANTIBIOTICS” (RQx Pharmaceuticals, Inc., priority 2017, published 2026)

Assays:
[1] = system: Escherichia coli ATCC 25922; assay: Minimum inhibitory concentration (MIC), CLSI broth micro-dilution, E. coli; type: cell-based; conditions: Escherichia coli, ATCC25922, 22 h, Table 6, cation adjusted Mueller Hinton Broth + 0.002% Tween-80, 35° C.
Summary of the method: (§1)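 Colonies grown 20 h at 35° C on Trypticase Soy agar (MRSA) or Luria agar (E. coli) were suspended in cation-adjusted Mueller Hinton broth with 0.002% Tween-80. Suspensions were added at OD600 0.0005 to 10-point twofold compound dilutions, then incubated 22 h at 35° C.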

[2] = system: Methicillin Resistant Staphylococcus aureus strain USA 200; assay: Minimum inhibitory concentration (MIC), CLSI broth micro-dilution, S. aureus; type: cell-based; conditions: Staphylococcus aureus, MRSA / USA200; Table 6; MRSA USA 200; cation adjusted Mueller Hinton Broth + 0.002% Tween-80; 35° C., 22 hours
Summary of the method: as §1

| Structure (SMILES) | MIC [1] | MIC [2] |
| --- | --- | --- |
| Cc1nc(-c2ccc(C(C)(C)C)cc2)nc(N)c1C(=O)N[C@@H](CCN)C(=O)N(C)[C@@H]1C(=O)N[C@@H](C)C(=O)N[C@H](C(=O)NCC#N)Cc2ccc(OCCN)c(c2)-c2cc1ccc2OCCN (racemic) [Compound 426, rac-(8S,11S,14S)-3,18-bis(2-aminoethoxy)-N-(cyanomethyl)-11-methyl-14-[methyl-[rac-(2S)-4-amino-2-[[4-amino-2-(4-tert-butylphenyl)-6-methyl-pyrimidine-5-carbonyl]amino]butanoyl]amino]-10,13-dioxo-9,12-diazatricyclo[13.3.1.12,6]icosa-1(18),2(20),3,5,15(19),16-hexaene-8-carboxamide] | 0.12 µM | 0.023 µM |
| Cc1nc(-c2ccc(C(C)(C)C)cc2)nc(C)c1C(=O)N[C@@H](CCN)C(=O)N(C)[C@@H]1C(=O)N[C@@H](C)C(=O)N[C@H](C(=O)NCC#N)Cc2ccc(OCCCCN)c(c2)-c2cc1ccc2OCCCCN (racemic) [Compound 437, rac-(8S,11S,14S)-3,18-bis(4-aminobutoxy)-N-(cyanomethyl)-11-methyl-14-[methyl-[rac-(2S)-4-amino-2-[[2-(4-tert-butylphenyl)-4,6-dimethyl-pyrimidine-5-carbonyl]amino]butanoyl]amino]-10,13-dioxo-9,12-diazatricyclo[13.3.1.12,6]icosa-1(18),2(20),3,5,15(19),16-hexaene-8-carboxamide] | 0.38 µM | 0.031 µM |
| Cc1nc(-c2ccc(C(C)(C)C)cc2)nc(C)c1C(=O)NCC(=O)N[C@@H](CCN)C(=O)N(C)[C@@H]1C(=O)N[C@@H](C)C(=O)N[C@H](C(=O)NCC#N)Cc2ccc(OCCN)c(c2)-c2cc1ccc2OCCN (racemic) [Compound 470, rac-(8S,11S,14S)-3,18-bis(2-aminoethoxy)-N-(cyanomethyl)-11-methyl-14-[methyl-[rac-(2S)-4-amino-2-[[2-[[2-(4-tert-butylphenyl)-4,6-dimethyl-pyrimidine-5-carbonyl]amino]acetyl]amino]butanoyl]amino]-10,13-dioxo-9,12-diazatricyclo[13.3.1.12,6]icosa-1(18),2(20),3,5,15(19),16-hexaene-8-carboxamide] | 4 µM | 0.047 µM |
| Cc1nc(-c2ccc(C(C)(C)C)cc2)ncc1C(=O)N[C@@H](CCNC(N)=O)C(=O)N(C)[C@@H]1C(=O)N[C@@H](C)C(=O)N[C@H](C(=O)NCC#N)Cc2ccc(OCCN)c(c2)-c2cc1ccc2OCCN (racemic) [Compound 452, rac-(8S,11S,14S)-3,18-bis(2-aminoethoxy)-N-(cyanomethyl)-11-methyl-14-[methyl-[rac-(2S)-2-[[2-(4-tert-butylphenyl)-4-methyl-pyrimidine-5-carbonyl]amino]-4-ureido-butanoyl]amino]-10,13-dioxo-9,12-diazatricyclo[13.3.1.12,6]icosa-1(18),2(20),3,5,15(19),16-hexaene-8-carboxamide] | 1.3 µM | 0.13 µM |
| Cc1nc(-c2ccc(C3C4CC5CC(C4)CC3C5)cc2)ncc1C(=O)N[C@@H](CCN)C(=O)N(C)[C@@H]1C(=O)N[C@@H](C)C(=O)N[C@H](C(=O)NCC#N)Cc2ccc(OCCN)c(c2)-c2cc1ccc2OCCN (mixture of isomers) [Compound 239, rac-(8S,11S,14S)-3,18-bis(2-aminoethoxy)-N-(cyanomethyl)-11-methyl-14-[methyl-[rac-(2S)-2-[[2-[4-(2-adamantyl)phenyl]-4-methyl-pyrimidine-5-carbonyl]amino]-4-amino-butanoyl]amino]-10,13-dioxo-9,12-diazatricyclo[13.3.1.12,6]icosa-1(18),2(20),3,5,15(19),16-hexaene-8-carboxamide] | 0.12 µM | 0.015 µM |
| C[C@@H]1NC(=O)[C@@H](N(C)C(=O)[C@H](CCN)NC(=O)C2CCN(c3ccc(C(C)(C)C)cc3)CC2)c2ccc(OCCN)c(c2)-c2cc(ccc2OCCN)C[C@@H](C(=O)NCC#N)NC1=O (racemic) [Compound 389, rac-(8S,11S,14S)-3,18-bis(2-aminoethoxy)-N-(cyanomethyl)-11-methyl-14-[methyl-[rac-(2S)-4-amino-2-[[1-(4-tert-butylphenyl)piperidine-4-carbonyl]amino]butanoyl]amino]-10,13-dioxo-9,12-diazatricyclo[13.3.1.12,6]icosa-1(18),2(20),3,5,15(19),16-hexaene-8-carboxamide] | 4 µM | 0.13 µM |
| CCCC#Cc1ccc(-c2ncc(C(=O)N[C@@H](CCN)C(=O)N(C)[C@@H]3C(=O)N[C@@H](C)C(=O)N[C@H](C(=O)NCC#N)Cc4ccc(OCCN)c(c4)-c4cc3ccc4OCCN)c(C)n2)cc1 (racemic) [Compound 227, rac-(8S,11S,14S)-3,18-bis(2-aminoethoxy)-N-(cyanomethyl)-11-methyl-14-[methyl-[rac-(2S)-4-amino-2-[[4-methyl-2-(4-pent-1-ynylphenyl)pyrimidine-5-carbonyl]amino]butanoyl]amino]-10,13-dioxo-9,12-diazatricyclo[13.3.1.12,6]icosa-1(18),2(20),3,5,15(19),16-hexaene-8-carboxamide] | 0.077 µM | 0.017 µM |
| Cc1nc(-c2ccc(C(C)(C)C)cc2)nc(C)c1C(=O)N[C@@H](CC(C)(C)N)C(=O)N(C)[C@@H]1C(=O)N[C@@H](C)C(=O)N[C@H](C(=O)NCC#N)Cc2ccc(OCCN)c(c2)-c2cc1ccc2OCCN [Compound 492, (8S,11S,14S)-14-[[(2S)-4-amino-2-[[2-(4-tert-butylphenyl)-4,6-dimethyl-pyrimidine-5-carbonyl]amino]-4-methyl-pentanoyl]-methyl-amino]-3,18-bis(2-aminoethoxy)-N-(cyanomethyl)-11-methyl-10,13-dioxo-9,12-diazatricyclo[13.3.1.12,6]icosa-1(18),2(20),3,5,15(19),16-hexaene-8-carboxamide] | 2 µM | 0.016 µM |

More lines, now with the values ahead:

| MIC [1] | MIC [2] | Structure (SMILES) |
| --- | --- | --- |
| 0.16 µM | 0.012 µM | Cc1nc(-c2ccc(C(C)(C)C)cc2)ncc1C(=O)N[C@@H](CCN)C(=O)N(C)[C@@H]1C(=O)N[C@@H](C)C(=O)N[C@H](C(=O)NCC#N)Cc2ccc(OC[C@H](C)N)c(c2)-c2cc1ccc2OC[C@H](C)N (racemic) [Compound 438, rac-(8S,11S,14S)-N-(cyanomethyl)-11-methyl-14-[methyl-[rac-(2S)-4-amino-2-[[2-(4-tert-butylphenyl)-4-methyl-pyrimidine-5-carbonyl]amino]butanoyl]amino]-10,13-dioxo-3,18-bis[rac-(2S)-2-aminopropoxy]-9,12-diazatricyclo[13.3.1.12,6]icosa-1(18),2(20),3,5,15(19),16-hexaene-8-carboxamide] |
| 0.13 µM | 0.016 µM | Cc1nc(-c2ccc3c(c2)CCC32CC2)nc(C)c1C(=O)N[C@@H](CCN)C(=O)N(C)[C@@H]1C(=O)N[C@@H](C)C(=O)N[C@H](C(=O)NCC#N)Cc2ccc(OCCN)c(c2)-c2cc1ccc2OCCN (racemic) [Compound 284, rac-(8S,11S,14S)-3,18-bis(2-aminoethoxy)-N-(cyanomethyl)-11-methyl-14-[methyl-[rac-(2S)-4-amino-2-[(4,6-dimethyl-2-spiro[cyclopropane-1,1′-indane]-5′-yl-pyrimidine-5-carbonyl)amino]butanoyl]amino]-10,13-dioxo-9,12-diazatricyclo[13.3.1.12,6]icosa-1(18),2(20),3,5,15(19),16-hexaene-8-carboxamide] |
| 0.13 µM | 0.012 µM | Cc1nc(-c2ccc(C3(C(F)(F)F)CC3)cc2)ncc1C(=O)N[C@@H](CCN)C(=O)N(C)[C@@H]1C(=O)N[C@@H](C)C(=O)N[C@H](C(=O)NCC#N)Cc2ccc(OCCN)c(c2)-c2cc1ccc2OCCN (racemic) [Compound 219, rac-(8S,11S,14S)-3,18-bis(2-aminoethoxy)-N-(cyanomethyl)-11-methyl-14-[methyl-[rac-(2S)-4-amino-2-[[4-methyl-2-[4-[1-(trifluoromethyl)cyclopropyl]phenyl]pyrimidine-5-carbonyl]amino]butanoyl]amino]-10,13-dioxo-9,12-diazatricyclo[13.3.1.12,6]icosa-1(18),2(20),3,5,15(19),16-hexaene-8-carboxamide] |
| 0.066 µM | 0.0082 µM | CCCCc1ccc(-c2nc(C)c(C(=O)N[C@@H](CCN)C(=O)N(C)[C@@H]3C(=O)N[C@@H](C)C(=O)N[C@H](C(=O)NCC#N)Cc4ccc(OCCN)c(c4)-c4cc3ccc4OCCN)c(C)n2)cc1 (racemic) [Compound 255, rac-(8S,11S,14S)-3,18-bis(2-aminoethoxy)-N-(cyanomethyl)-11-methyl-14-[methyl-[rac-(2S)-4-amino-2-[[2-(4-butylphenyl)-4,6-dimethyl-pyrimidine-5-carbonyl]amino]butanoyl]amino]-10,13-dioxo-9,12-diazatricyclo[13.3.1.12,6]icosa-1(18),2(20),3,5,15(19),16-hexaene-8-carboxamide] |
| 0.5 µM | 0.016 µM | CCCCCCOc1ccc2nc(C)c(C(=O)N[C@@H](CCN)C(=O)N(C)[C@@H]3C(=O)N[C@@H](C)C(=O)N[C@H](C(=O)NCC#N)Cc4ccc(OCCN)c(c4)-c4cc3ccc4OCCN)cc2c1 (racemic) [Compound 396, rac-(8S,11S,14S)-3,18-bis(2-aminoethoxy)-N-(cyanomethyl)-11-methyl-14-[methyl-[rac-(2S)-4-amino-2-[(6-hexoxy-2-methyl-quinoline-3-carbonyl)amino]butanoyl]amino]-10,13-dioxo-9,12-diazatricyclo[13.3.1.12,6]icosa-1(18),2(20),3,5,15(19),16-hexaene-8-carboxamide] |
